Experimental data reported in the supplement of paper PMC13380429.
Counter-ions that a name gives are not always drawn. ± gives the standard deviation of the averaged measurements.

Assays:
Conditions in all cases: 72 h
Calu-3 [1] = assay: cell viability relative to DMSO; higher = less toxic
U2OS [2] = assay: as above
Vero E6 [3] = assay: as above
HepG2 [4] = assay: as above
Caco-2 [5] = assay: as above
Calu-3 [6] = assay: relative viability EC50 (midpoint between 100% and the lowest measured viability); higher = less toxic
U2OS [7] = assay: as above
Vero E6 [8] = assay: as above
HepG2 [9] = assay: as above
Caco-2 [10] = assay: as above
Calu-3 [11] = assay: drug sensitivity score (DSS) for viability; higher = more toxic; extreme values may be limits of the assay
U2OS [12] = assay: as above
Vero E6 [13] = assay: as above
HepG2 [14] = assay: as above
Caco-2 [15] = assay: as above

In the case of `C[C@H]1CCc2c(cc(Br)c(F)c2Br)N1C=O` [CE3F4], the cell viability (Calu-3 [1]; 1 nM) is reported as 105%, the cell viability (Calu-3 [1]; 10 nM) is reported as 102% and the cell viability (Calu-3 [1]; 100 nM) is reported as 89.6%. It also gave a cell viability (Calu-3 [1]; 1000 nM) of 93.7%, a cell viability (Calu-3 [1]; 10000 nM) of 90% and a cell viability (U2OS [2]; 1 nM) of 98.3%. It also gave a cell viability (U2OS [2]; 10 nM) of 101%, a cell viability (U2OS [2]; 100 nM) of 99.6% and a cell viability (U2OS [2]; 1000 nM) of 102%. It also gave a cell viability (U2OS [2]; 10000 nM) of 96.1%, a cell viability (Vero E6 [3]; 1 nM) of 103% and a cell viability (Vero E6 [3]; 10 nM) of 101%. The cell viability (Vero E6 [3]; 100 nM) was 98.2%, the cell viability (Vero E6 [3]; 1000 nM) was 93.8% and the cell viability (Vero E6 [3]; 10000 nM) was 102%. It also gave a cell viability (HepG2 [4]; 1 nM) of 110%, a cell viability (HepG2 [4]; 10 nM) of 99.2% and a cell viability (HepG2 [4]; 100 nM) of 113%. The cell viability (HepG2 [4]; 1000 nM) was 100%, the cell viability (HepG2 [4]; 10000 nM) was 103% and the cell viability (Caco-2 [5]; 1 nM) was 105%. The cell viability (Caco-2 [5]; 10 nM) was 99.9%, the cell viability (Caco-2 [5]; 100 nM) was 91.9% and the cell viability (Caco-2 [5]; 1000 nM) was 104%. For the same molecule, the cell viability (Caco-2 [5]; 10000 nM) was 88.8%, the “relative viability EC50” value (Calu-3 [6]) was greater than 10 µM and the “relative viability EC50” value (U2OS [7]) was greater than 10 µM. For the same molecule, the “relative viability EC50” value (Vero E6 [8]) was greater than 10 µM, the “relative viability EC50” value (HepG2 [9]) was greater than 10 µM and the “relative viability EC50” value (Caco-2 [10]) was greater than 10 µM. For the same molecule, the drug sensitivity score (Calu-3 [11]) was 0.2, the drug sensitivity score (U2OS [12]) was 0 and the drug sensitivity score (Vero E6 [13]) was 0. The drug sensitivity score (HepG2 [14]) was 0 and the drug sensitivity score (Caco-2 [15]) was 0.

`COc1cccc2c1C(=O)c1c(O)c3c(c(O)c1C2=O)C[C@@](O)(C(=O)CO)C[C@@H]3O[C@H]1C[C@H](N)[C@@H](O)[C@H](C)O1` [Epirubicin Hydrochloride] was tested, and the cell viability (Calu-3 [1]; 1 nM) was 101 ± 3.3%, the cell viability (Calu-3 [1]; 10 nM) was 102 ± 6.4% and the cell viability (Calu-3 [1]; 100 nM) was 80 ± 6.6%. It also gave a cell viability (Calu-3 [1]; 1000 nM) of 41.2 ± 1.1%, a cell viability (Calu-3 [1]; 10000 nM) of 30.4 ± 0.49% and a cell viability (U2OS [2]; 1 nM) of 95.5 ± 1.4%. It also gave a cell viability (U2OS [2]; 10 nM) of 99.7 ± 0.28%, a cell viability (U2OS [2]; 100 nM) of 90.2 ± 1.8% and a cell viability (U2OS [2]; 1000 nM) of 17.1 ± 9.9%. The cell viability (U2OS [2]; 10000 nM) was 3.15 ± 1.3%, the cell viability (Vero E6 [3]; 1 nM) was 100 ± 2% and the cell viability (Vero E6 [3]; 10 nM) was 96.5 ± 2%. The cell viability (Vero E6 [3]; 100 nM) was 96 ± 3.5%, the cell viability (Vero E6 [3]; 1000 nM) was 71.1 ± 3.7% and the cell viability (Vero E6 [3]; 10000 nM) was 34.4 ± 8%. The cell viability (HepG2 [4]; 1 nM) was 102.8 ± 0.14%, the cell viability (HepG2 [4]; 10 nM) was 93.2 ± 12% and the cell viability (HepG2 [4]; 100 nM) was 49.7 ± 0.57%. It also gave a cell viability (HepG2 [4]; 1000 nM) of 12.25 ± 0.071%, a cell viability (HepG2 [4]; 10000 nM) of 4.25 ± 0.64% and a cell viability (Caco-2 [5]; 1 nM) of 95.8 ± 5.9%. For the same molecule, the cell viability (Caco-2 [5]; 10 nM) was 97 ± 6.3%, the cell viability (Caco-2 [5]; 100 nM) was 89 ± 1.4% and the cell viability (Caco-2 [5]; 1000 nM) was 40.8 ± 1.2%. For the same molecule, the cell viability (Caco-2 [5]; 10000 nM) was 30.9 ± 1.7%, the “relative viability EC50” value (Calu-3 [6]) was 0.224 µM and the “relative viability EC50” value (U2OS [7]) was 0.349 µM. The “relative viability EC50” value (Vero E6 [8]) was 1.13 µM, the “relative viability EC50” value (HepG2 [9]) was 0.0903 µM and the “relative viability EC50” value (Caco-2 [10]) was 0.3 µM. It also gave a drug sensitivity score (Calu-3 [11]) of 13.3 ± 0.99, a drug sensitivity score (U2OS [12]) of 16.6 ± 1.5 and a drug sensitivity score (Vero E6 [13]) of 7. It also gave a drug sensitivity score (HepG2 [14]) of 22.9 ± 0.14 and a drug sensitivity score (Caco-2 [15]) of 12.3 ± 0.35.

For `CN(C(=O)c1ccc(F)cc1C(F)(F)F)C1CCN(c2nnc(-c3ccnn3C)c3ccccc23)CC1` [taladegib], the cell viability (Calu-3 [1]; 1 nM) was 93.1%, the cell viability (Calu-3 [1]; 10 nM) was 93.7% and the cell viability (Calu-3 [1]; 100 nM) was 92.8%. It also gave a cell viability (Calu-3 [1]; 1000 nM) of 109%, a cell viability (Calu-3 [1]; 10000 nM) of 99.4% and a cell viability (U2OS [2]; 1 nM) of 94.9%. It also gave a cell viability (U2OS [2]; 10 nM) of 101%, a cell viability (U2OS [2]; 100 nM) of 93% and a cell viability (U2OS [2]; 1000 nM) of 101%. The cell viability (U2OS [2]; 10000 nM) was 95.6%, the cell viability (Vero E6 [3]; 1 nM) was 106% and the cell viability (Vero E6 [3]; 10 nM) was 99.5%. The cell viability (Vero E6 [3]; 100 nM) was 102%, the cell viability (Vero E6 [3]; 1000 nM) was 90.9% and the cell viability (Vero E6 [3]; 10000 nM) was 91.4%. The cell viability (HepG2 [4]; 1 nM) was 120%, the cell viability (HepG2 [4]; 10 nM) was 113% and the cell viability (HepG2 [4]; 100 nM) was 111%. It also gave a cell viability (HepG2 [4]; 1000 nM) of 93.5%, a cell viability (HepG2 [4]; 10000 nM) of 93.2% and a cell viability (Caco-2 [5]; 1 nM) of 96.9%. It also gave a cell viability (Caco-2 [5]; 10 nM) of 92.2%, a cell viability (Caco-2 [5]; 100 nM) of 87.7% and a cell viability (Caco-2 [5]; 1000 nM) of 106%. The cell viability (Caco-2 [5]; 10000 nM) was 92.8%, the “relative viability EC50” value (Calu-3 [6]) was greater than 10 µM and the “relative viability EC50” value (U2OS [7]) was greater than 10 µM. The “relative viability EC50” value (Vero E6 [8]) was greater than 10 µM, the “relative viability EC50” value (HepG2 [9]) was greater than 10 µM and the “relative viability EC50” value (Caco-2 [10]) was greater than 10 µM. The drug sensitivity score (Calu-3 [11]) was 0, the drug sensitivity score (U2OS [12]) was 0 and the drug sensitivity score (Vero E6 [13]) was 0. The drug sensitivity score (HepG2 [14]) was 0 and the drug sensitivity score (Caco-2 [15]) was 0.
